Read-outs that look alike come from different tables or passages of the source.
Experiments:
C57BL/6J mice [1] = test: Oral SBI-553 modulation of PD149163-induced hypothermia and hypoactivity; type: in vivo, mouse; conditions: SBI-553 10, 30, 100 mg/kg p.o. 30 min prior to PD149163 i.p.
C57BL/6J mice [2] = test: Methamphetamine conditioned place preference; conditions: 12 mg/kg i.p. 15 min prior to test
C57BL/6J mice [3] = test: Stimulant-induced hyperlocomotion in the open field; type: in vivo, mouse; conditions: 12 mg/kg i.p.
NTSR1 [4] = biological target: T1, NTSR1 (Homo sapiens, UniProt P30989); test: Radioligand binding to NTSR1-containing HEK293T cell membranes
NTSR1 [5] = biological target: T1, NTSR1; test: Apo-aequorin calcium assay; type: cell-based; conditions: for effect on NTS-induced Ca2+ mobilization: in combination with NTS (10 nM); for Ca2+ mobilization: ligand alone
C57BL/6J mice [6] = test: Intravenous cocaine self-administration; type: in vivo, mouse
NTSR1 [7] = biological target: T1, NTSR1; test: Phosphorylated NTSR1 detection by western blot; type: cell-based; conditions: NTSR1-expressing HEK293T cells; NTS 10 nM, SBI-553 10 μM, SR142948A 10 μM
NTSR1 [8] = biological target: T1, NTSR1; test: Gq protein activation by TGFα shedding assay; type: cell-based; conditions: for effect on NTS-induced Gq activation: in combination with NTS; for Gq activation: ligand alone
β-arrestin2 KO mice = type: in vivo, mouse; conditions: 12 mg/kg i.p.; for cocaine-induced hyperlocomotion: cocaine 30 mg/kg i.p.
C57BL/6J mice [9] = test: Horizontal wire test; type: in vivo, mouse; conditions: PD149163 i.p. 120 min, SBI-553 i.p. (up to 30 mg/kg) 30 min prior to testing
C57BL/6J mice [10] = test: Contact righting test; type: in vivo, mouse; conditions: PD149163 i.p. 120 min, SBI-553 i.p. (up to 30 mg/kg) 30 min prior to testing
DAT KO mice = test: L-DOPA-induced restoration of locomotion in dopamine depleted DAT KO mice; type: in vivo, mouse; conditions: 12 mg/kg i.p., AMPT dopamine-depleted DAT KO mice
NTSR1 [11] = biological target: T1, NTSR1; test: Confocal β-arrestin2 translocation assay in U2OS cells; type: cell-based; conditions: for β-arrestin2 translocation: NTSR1-expressing U2OS cells, ligand alone
NTSR1 [12] = biological target: T1, NTSR1; test: BRET β-arrestin2 recruitment assay in HEK293T cells; type: cell-based
C57BL/6J mice [13] = test: Core body temperature measurement; type: in vivo, mouse; conditions: PD149163 0.1 – 1 mg/kg i.p.; SBI-553 2–30 mg/kg i.p.
NTSR1 [14] = biological target: T1, NTSR1; test: IP3 BRET assay; type: cell-based; conditions: for effect on NTS-induced IP3 production: in combination with NTS; for IP3 generation: ligand alone, SBI-553 10 μM, SR142948A 10 μM
NTSR1 [15] = biological target: T1, NTSR1; test: NTSR1 internalization assay; type: cell-based
NTSR1 [16] = biological target: T1, NTSR1; test: Phosphorylated ERK detection by western blot; type: cell-based
C57BL/6J mice [17] = test: Blood pressure measurement; type: in vivo, mouse; conditions: SBI-553 12 mg/kg i.p.; PD149163 0.3 mg/kg i.p.; 60 minutes post-treatment
[18] = [3H]NTS saturation binding with SBI-553 0.01 – 10 μM
[19] = 12 mg/kg i.p., cocaine 0.1 mg/kg/infusion
[20] = low-concentration NTS, maximal levels not altered
[21] = HEK293T cells expressing human NTSR1, SBI-553 10 μM, SR142948A 10 μM

T1 sequence (P30989 whole entry): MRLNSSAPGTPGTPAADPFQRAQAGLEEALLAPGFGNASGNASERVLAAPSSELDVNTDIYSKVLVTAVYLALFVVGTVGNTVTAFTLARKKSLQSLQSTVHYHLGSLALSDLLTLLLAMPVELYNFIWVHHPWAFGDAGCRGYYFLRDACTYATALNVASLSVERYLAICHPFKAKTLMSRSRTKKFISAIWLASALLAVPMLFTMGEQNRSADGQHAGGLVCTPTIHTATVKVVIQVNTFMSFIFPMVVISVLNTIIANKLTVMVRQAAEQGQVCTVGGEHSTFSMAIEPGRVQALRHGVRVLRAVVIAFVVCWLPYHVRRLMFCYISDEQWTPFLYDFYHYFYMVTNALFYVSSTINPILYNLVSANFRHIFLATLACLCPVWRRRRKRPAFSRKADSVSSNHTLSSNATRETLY

COc1ccccc1C1CCN(c2nc(C3(F)CC3)nc3ccc(N(C)CCO)cc23)CC1 [SBI-553]
PD149163-induced reduction in core body temperature (C57BL/6J mice [1]): dose-dependently attenuated | PD149163-induced reduction in horizontal activity in the open field (C57BL/6J mice [1]): dose-dependently attenuated | expression of methamphetamine conditioned place preference (C57BL/6J mice [2]): blocked the expression of methamphetamine conditioned place preference | locomotor response vs vehicle in non-stimulant exposed animals (C57BL/6J mice [3]): comparable | cocaine-induced hyperlocomotion (C57BL/6J mice [3]; cocaine 30 mg/kg i.p.): attenuate cocaine-induced hyperlocomotion | methamphetamine-induced hyperlocomotion (C57BL/6J mice [3]; methamphetamine 2 mg/kg): reduced | effect on total [3H]NTS binding (NTSR1 [4]; 5 nM [3H]NTS, 10 μM unlabeled ligand): increased total [^3H]NTS binding | increase of NTS affinity for NTSR1 (Kd) (NTSR1 [4]; [18]): up to 3.9 fold | increase of number of available [3H]NTS binding sites (Bmax) (NTSR1 [4]; [18]): up to 3.3 fold | effect on NTS-induced Ca2+ mobilization (NTSR1 [5]): attenuated | Ca2+ mobilization (NTSR1 [5]): neither SBI-553 nor SR142948A stimulated | lever discrimination (percent responses at active and inactive levers) (C57BL/6J mice [6]; 12 mg/kg i.p., 3-day test): lever discrimination was unchanged | activity at the inactive lever (C57BL/6J mice [6]; [19]): unchanged across treatments | cocaine intake, level of the vehicle control (C57BL/6J mice [6]; [19]): less than 20% | latency to initiate lever responding (C57BL/6J mice [6]; [19]): increased the latency to initiate lever responding | percent of lever responses during the post-reinforcement cue period (C57BL/6J mice [6]; [19]): reduced the percent of lever responses that occurred during the post-reinforcement cue period | cumulative self-administered cocaine reinforcements (C57BL/6J mice [6]; 12 mg/kg i.p., cocaine 0.1 mg/kg/infusion, FR4, 60 min session): fewer cumulative self-administered reinforcements between 20 and 60 min | total and active lever responses (C57BL/6J mice [6]; 12 mg/kg i.p., cocaine 0.1 mg/kg/infusion, relative to Vehicle and No Treatment): significantly suppressed total and active lever responses | cocaine self-administration at the highest cocaine dose (C57BL/6J mice [6]; SBI-553 2, 6, 12 mg/kg i.p., cocaine 1 mg/kg/infusion): No change in self-administration | lever accuracy (C57BL/6J mice [6]; SBI-553 2, 6, 12 mg/kg i.p., cocaine 0.1-1 mg/kg/infusion): not altered by SBI-553 treatment | cocaine self-administration dose-response (C57BL/6J mice [6]; SBI-553 6, 12 mg/kg, cocaine 0.1, 0.3, 0.5 mg/kg/infusion): greater efficacy at lower cocaine infusion doses | NTSR1 phosphorylation (phosphothreonine blot) (NTSR1 [7]): resulted in NTSR1 phosphorylation | effect on NTS-induced Gq activation (NTSR1 [8]): attenuated | Gq activation (NTSR1 [8]): neither SBI-553 nor the antagonist SR142948A had any effect | methamphetamine-induced hyperlocomotion (β-arrestin2 KO mice; A2aR-Cre animals (deletion in striatal D2R-expressing neurons)): no SBI-553 effects were observed | methamphetamine-induced hyperlocomotion (β-arrestin2 KO mice; D1RCre animals (β-arrestin2 deletion in D1R-expressing neurons)): effectively reduced | methamphetamine-induced hyperlocomotion (β-arrestin2 KO mice; D2R-Cre mice (β-arrestin2 deletion in D2R-expressing neurons)): failed to affect locomotion | methamphetamine-induced hyperlocomotion (β-arrestin2 KO mice; DAT-Cre mice (deletion in midbrain D2R-expressing neurons)): reduced the methamphetamine-induced hyperlocomotion | cocaine-induced hyperlocomotion (β-arrestin2 KO mice; WT mice on C57BL/6J background): decrease | methamphetamine-induced hyperlocomotion (β-arrestin2 KO mice; WT mice on C57BL/6J background, methamphetamine 2 mg/kg i.p.): decrease | cocaine-induced hyperlocomotion (β-arrestin2 KO mice; global β-arrestin2 knockout mice): a significant reduction in locomotion was absent | methamphetamine-induced hyperlocomotion (β-arrestin2 KO mice; global β-arrestin2 knockout mice, methamphetamine 2 mg/kg i.p.): a significant reduction in locomotion was absent | methamphetamine-induced hyperlocomotion (β-arrestin2 KO mice; β-arrestin2 f/f Cre negative littermate controls): effectively reduced | wire-hang test, latency to grasp the wire (C57BL/6J mice [9]): failed to influence | righting reflex (C57BL/6J mice [10]): failed to influence | L-DOPA-induced restoration of locomotion (DAT KO mice): attenuated | β-arrestin2 translocation in U2OS cells lacking NTSR1 (NTSR1 [11]; NTS 200 nM, SBI-553 7.5 μM, 40 min): Neither NTS nor SBI-553 treatment stimulated β-arrestin2 translocation | β-arrestin2 translocation (NTSR1 [11]): stimulated β-arrestin2 translocation to the plasma membrane | effect of pretreatment on NTS-induced β-arrestin2 translocation (NTSR1 [11]; [20]): enhanced | β-arrestin2 recruitment to NTSR1 (NTSR1 [12]; ligand alone): stimulated β-arrestin2 recruitment | effect of pretreatment on NTS-induced β-arrestin2 recruitment to NTSR1 (NTSR1 [12]; low-concentration NTS): enhanced | core body temperature (C57BL/6J mice [13]): no effect on core body temperature | effect on NTS-induced IP3 production (NTSR1 [14]): attenuated | IP3 generation (NTSR1 [14]): neither SBI-553 nor SR142948A stimulated | NTSR1 internalization (NTSR1 [15]; ligand alone): stimulated NTSR1 internalization | effect of pretreatment on NTS-induced NTSR1 internalization (NTSR1 [15]; [20]): enhanced | pERK generation (NTSR1 [16]; HEK293T cells expressing human NTSR1, ligand alone, NTS 10 nM, SBI-553 10 μM): failed to elicit pERK generation | effect of pretreatment on NTS-induced pERK (NTSR1 [16]; [21]): blunted the early sharp peak in pERK | NTS-induced pERK, NTS alone vs NTS in combination with SBI-553 (NTSR1 [16]; HEK293 cells lacking the Gq/11 protein (Gq-null)): comparable pERK time courses | effect of pretreatment on NTS-induced pERK (NTSR1 [16]; β-arrestin1/2-null HEK293 cells): blocked in its entirety | peak systolic pressure vs vehicle (C57BL/6J mice [17]): no differences

COc1cccc(OC)c1-c1cc(C(=O)NC2(C(=O)O)C3CC4CC(C3)CC2C4)nn1-c1ccc(C(=O)N(C)CCCN(C)C)cc1C(C)C (stereo not drawn) [SR142948A, reference compound]
displacement of [3H]SBI-553 from NTSR1 (NTSR1 [4]; 100 nM [3H]SBI-553, 10 μM unlabeled competitor, YOx beads): not displaced | effect on NTS-induced Ca2+ mobilization (NTSR1 [5]): attenuated | Ca2+ mobilization (NTSR1 [5]): neither SBI-553 nor SR142948A stimulated | effect on NTS-induced Gq activation (NTSR1 [8]): attenuated | Gq activation (NTSR1 [8]): neither SBI-553 nor the antagonist SR142948A had any effect | block of NTS- and SBI-553-induced β-arrestin2 translocation (NTSR1 [11]; NTS 5 nM or SBI-553 10 μM): antagonized NTS-induced, but not SBI-553-induced | β-arrestin2 translocation (NTSR1 [11]): without effect | block of NTS- and SBI-553-induced β-arrestin2 recruitment to NTSR1 (NTSR1 [12]): antagonized NTS-induced, but not SBI-553-induced | effect on NTS-induced IP3 production (NTSR1 [14]): attenuated | IP3 generation (NTSR1 [14]): neither SBI-553 nor SR142948A stimulated | block of NTS- and SBI-553-induced NTSR1 internalization (NTSR1 [15]; NTS 10 nM or SBI-553 10 μM): antagonized NTS-induced, but not SBI-553-induced | effect of pretreatment on NTS-induced pERK (NTSR1 [16]; [21]): abolished

— PMC7466280 (Cell, 2020)
